pIC50: −log10 of the molar value.
Target: T1, KRas G12C (Homo sapiens, UniProt P01116, G12C)
T1 construct: NCI-H358 cells (ATCC CRL-5807) express KRas G12C
Test: Inhibition of KRas G12C-dependent cell growth: Phospho-ERK in NCI-H358 cells
Type: cell-based
Conditions: NCI-H358 cells expressing KRas G12C; Phospho-ERK (Thr202/Tyr204) normalized to GAPDH; 3 hours compound; 4 parameter fit
Description: The cellular inhibition of KRAs G12C by exemplary compounds of the present invention was determined by measuring the amount of a downstream marker of KRas activity, phosphorylated ERK (“Phospho-ERK”).
NCI-H358 cells (ATCC CRL-5807) express KRas G12C and were grown in RPMI medium supplemented with 10% fetal bovine serum, penicillin/streptomycin and 10 mM HEPES. Cells were plated in poly-D-Lysine coated 96-well plates at a concentration of 50,000 cells/well and allowed to attach for 8-12 hours. Diluted compounds were then added at a final concentration of 0.5% DMSO. After 3 hours, the medium was removed, 150 μL of 4% formaldehyde was added and the plates were incubated for 20 minutes. The plates were washed with PBS, and permeabilized using 150 μL of ice cold 100% methanol for 10 minutes. Non-specific antibody binding to the plates was blocked using 100 μL Licor Blocking Buffer (Li-Cor Biotechnology, Lincoln Nebr.) for 1 hour at room temperature. Positive control samples and samples lacking cells were parallel processed with test samples as standards.
The amount Phospho-ERK was determined using an antibody specific for the phosphorylated form of ERK and compared to the amount of GAPDH. Primary antibodies used for detection were added as follows: Phospho-ERK (Cell Signaling cs9101) diluted 1:500 and GAPDH (Millipore MAB374) diluted 1:5000 in Licor block+0.05% Tween 20. The plates were incubated for 2 hours at room temperature. The plates were washed with PBS+0.05% Tween 20.
Secondary antibodies used to visualize primary antibodies were added as follows: Anti-rabbit-680 diluted 1:1000 and Anti-mouse-800 diluted 1:1000 in Licor Block+0.05% Tween 20 and incubated for 1 hour at room temperature. The plates were washed with PBS+0.05% Tween 20. A 100 μL aliquot of PBS was added to each well and the plates were read on a LICOR AERIUS plate reader.
The pERK(Thr202/Tyr204) signal was normalized with the GAPDH signal and percent of DMSO control values were calculated. IC50 values were generated using a 4 parameter fit of the dose response curve.

T1 sequence (P01116 1-188 isoform P01116-2 G12C): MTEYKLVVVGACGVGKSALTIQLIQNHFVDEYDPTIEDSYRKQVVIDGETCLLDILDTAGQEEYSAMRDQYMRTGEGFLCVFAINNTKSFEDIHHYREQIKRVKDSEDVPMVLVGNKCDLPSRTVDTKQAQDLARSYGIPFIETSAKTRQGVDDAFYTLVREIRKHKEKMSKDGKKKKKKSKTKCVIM

Row | SMILES | pIC50
1 | C=CC(=O)N1CC[C@@H]2[C@H]1CN2c1nc(N(C)C)nc2c(F)c(-c3cccc4ccc(F)c(Cl)c34)ncc12 [Example 269] | 5.35
2 | C=CC(=O)N1CCN(c2ncnc3c(F)c(-c4c(N)c(Cl)cc(Cl)c4F)ncc23)C[C@@H]1CC#N [Example 243] | 5.92
3 | C=CC(=O)N1CC[C@@H]2[C@H]1CN2c1nc(N)nc2c(F)c(-c3cccc4ccc(F)c(Cl)c34)ncc12 [Example 282] | 6.54
4 | C=CC(=O)N1CCN(c2ncnc3c(F)c(-c4c(C)c(C)cc5[nH]ncc45)ncc23)CC1 [Example 198] | 5.10
5 | C=CC(=O)N1C2CCC1CN(c1ncnc3c(F)c(-c4cccc5ccc(F)c(Cl)c45)ncc13)C2 [Example 131] | 5.00
6 | C=CC(=O)N1CC[C@@H]2[C@H]1CN2c1nc(OC[C@@H]2CC(F)(F)CN2C)nc2c(F)c(-c3cccc4ccc(F)c(Cl)c34)ncc12 [Example 262] | 6.94
7 | C=CC(=O)N1CCN(c2ncnc3c(F)c(-c4cc(F)cc5ccccc45)ncc23)C[C@@H]1CC#N [Example 249] | 5.90
8 | C=CC(=O)N1CCCC12CN(c1ncnc3c(F)c(-c4cccc5ccc(F)c(Cl)c45)ncc13)C2 [Example 236] | 5.00
9 | C=CC(=O)N1CCN(c2ncnc3c(F)c(-c4cc(Cl)cc5ccccc45)ncc23)CC1 [Example 255] | 5.00
10 | C=CC(=O)N1C[C@@H]2[C@H]1CCN2c1nc(C)nc2c(F)c(-c3cccc4ccc(F)c(Cl)c34)ncc12 [Example 231] | 5.37
11 | COC/C=C/C(=O)N1CC[C@@H]2[C@H]1CN2c1ncnc2c(F)c(-c3cccc4ccc(F)c(Cl)c34)ncc12 [Example 259] | 5.05
12 | C=C(F)C(=O)N1CCN(c2nc(OC[C@@H]3CCCN3C)nc3c(F)c(-c4nc(N)cc5ccccc45)ncc23)C[C@@H]1CC#N [Example 107] | 6.81
13 | C=CC(=O)N1CCN(c2nc(C(F)(F)F)nc3c(F)c(-c4cccc5ccc(F)c(Cl)c45)ncc23)C[C@@H]1CC#N [Example 199] | 5.47
14 | Cc1cccc2cccc(-c3ncc4c(N5CCN(C(=O)/C=C/CF)[C@@H](CC#N)C5)nc(OCCCN5C[C@@H]6C[C@H]5CO6)nc4c3F)c12 [Example 30, 2-[(2S)-1-[(E)-4-fluorobut-2-enoyl]-4-[8-fluoro-7-(8-methyl-1-naphthyl)-2-[3-[(1S,4S)-2-oxa-5-azabicyclo[2.2.1]heptan-5-yl]propoxy]pyrido[4,3-d]pyrimidin-4-yl]piperazin-2-yl]acetonitrile] | 6.88
15 | O=C(/C=C/CF)N1CC[C@@H]2[C@H]1CN2c1ncnc2c(F)c(-c3cccc4ccc(F)c(Cl)c34)ncc12 [Example 221] | 5.71
16 | C=CC(=O)N1CCN(c2ncnc3c(F)c(-c4ccccc4C4CC4)ncc23)CC1 [Example 224] | 5.00
17 | C=CC(=O)N1CC[C@@H]2[C@H]1CN2c1ncnc2c(F)c(-c3cccc4cc(OC)ccc34)ncc12 [Example 266] | 5.00

The next compounds have a higher pIC50 than those just listed; values first:

Row | pIC50 | SMILES
18 | 6.96 | C=CC(=O)N1CCN(c2nc(OC[C@@H]3CCCN3C)nc3c(F)c(-c4cccc5ccc(F)c(Cl)c45)ncc23)CC1C(F)(F)F (stereo partly drawn) [Example 163]
19 | 7.04 | C=CC(=O)N1CCN(c2nc(OC)nc3c(F)c(-c4cccc5ccc(F)c(Cl)c45)ncc23)C[C@@H]1CC#N [Example 136]
20 | 7.26 | CO[C@@H]1C[C@@H](COc2nc(N3CCN(C(=O)/C=C/CF)[C@@H](CC#N)C3)c3cnc(-c4cccc5cccc(C)c45)c(F)c3n2)N(C)C1 [Example 26, 2-[(2S)-1-[(E)-4-fluorobut-2-enoyl]-4-[8-fluoro-2-[[(2S,4R)-4-methoxy-1-methyl-pyrrolidin-2-yl]methoxy]-7-(8-methyl-1-naphthyl)pyrido[4,3-d]pyrimidin-4-yl]piperazin-2-yl]acetonitrile]
21 | 7.34 | C=C(F)C(=O)N1CCN(c2nc(OC[C@@H]3CCCN3C3CC3)nc3c(F)c(-c4cccc5ccc(F)c(Cl)c45)ncc23)C[C@@H]1CC#N [Example 209]
22 | 7.35 | C=C(F)C(=O)N1CCN(c2nc(OC[C@@H]3C[C@@H](OC)CN3C)nc3c(F)c(-c4cncc5cccc(C)c45)ncc23)C[C@@H]1CC#N [Example 34, 2-[(2S)-4-[8-fluoro-2-[[(2S,4R)-4-methoxy-1-methyl-pyrrolidin-2-yl]methoxy]-7-(5-methyl-4-isoquinolyl)pyrido[4,3-d]pyrimidin-4-yl]-1-(2-fluoroprop-2-enoyl)piperazin-2-yl]acetonitrile]
23 | 7.66 | C=CC(=O)N1CCN(c2ncnc3c(F)c(-c4cc(O)cc5ccccc45)ncc23)C[C@@H]1CC#N [Example 220, (S)-2-(1-acryloyl-4-(8-fluoro-7-(3-hydroxynaphthalen-1-yl)pyrido[4,3-d]pyrimidin-4-yl)piperazin-2-yl)acetonitrile]
24 | 7.68 | C=CC(=O)N1CCN(c2ncnc3c(F)c(-c4cccc5ccc(F)c(Cl)c45)ncc23)C[C@@H]1CC#N [Example 109]
25 | 7.70 | C#Cc1cccc2cc(O)cc(-c3ncc4c(N5C[C@@H]6[C@H]5CCN6C(=O)C=C)nc(OC[C@@H]5CCCN5C)nc4c3F)c12 [Example 292, 1-((1R,5R)-6-(7-(8-ethynyl-3-hydroxynaphthalen-1-yl)-8-fluoro-2-(((S)-1-methylpyrrolidin-2-yl)methoxy)pyrido[4,3-d]pyrimidin-4-yl)-2,6-diazabicyclo[3.2.0]heptan-2-yl)prop-2-en-1-one]
26 | 7.74 | CN1CCC[C@H]1COc1nc(N2CCN(C(=O)/C=C/CF)[C@@H](CC#N)C2)c2cnc(-c3cccc4cccc(Cl)c34)c(F)c2n1 [Example 23, 2-((S)-4-(7-(8-chloronaphthalen-1-yl)-8-fluoro-2-(((S)-1-methylpyrrolidin-2-yl)methoxy)pyrido[4,3-d]pyrimidin-4-yl)-1-((E)-4-fluorobut-2-enoyl)piperazin-2-yl)acetonitrile]
27 | 7.82 | C=CC(=O)N1CC[C@@H]2[C@H]1CN2c1ncnc2c(F)c(-c3cc(O)cc4cccc(Cl)c34)ncc12 [Example 288, 1-((1R,5R)-6-(7-(8-chloro-3-hydroxynaphthalen-1-yl)-8-fluoropyrido[4,3-d]pyrimidin-4-yl)-2,6-diazabicyclo[3.2.0]heptan-2-yl)prop-2-en-1-one]
28 | 8.15 | C#Cc1cccc2cccc(-c3ncc4c(N5CCN(C(=O)C(=C)F)[C@@H](CC#N)C5)nc(OC[C@@H]5CCCN5C)nc4c3F)c12 [Example 212, 2-((S)-4-(7-(8-ethynylnaphthalen-1-yl)-8-fluoro-2-(((S)-1-methylpyrrolidin-2-yl)methoxy)pyrido[4,3-d]pyrimidin-4-yl)-1-(2-fluoroacryloyl)piperazin-2-yl)acetonitrile]
29 | 8.70 | C=C(F)C(=O)N1CCN(c2nc(OC[C@@H]3CCCN3C)nc3c(O)c(-c4cccc5cccc(C)c45)ncc23)C[C@@H]1CC#N [Example 211, 2-((S)-1-(2-fluoroacryloyl)-4-(8-hydroxy-7-(8-methylnaphthalen-1-yl)-2-(((S)-1-methylpyrrolidin-2-yl)methoxy)pyrido[4,3-d]pyrimidin-4-yl)piperazin-2-yl)acetonitrile]
30 | 8.70 | C=C(F)C(=O)N1CCN(c2nc(OCC34CCCN3C[C@H](F)C4)nc3c(F)c(-c4cccc5ccc(F)c(Cl)c45)ncc23)C[C@@H]1CC#N (stereo partly drawn) [Example 145]

Source: patent US11548888B2, “KRas G12C inhibitors” (Mirati Therapeutics, Inc., priority 2019, dated 2023)
